{
  "source": "patent US11253534B2",
  "about": "“Method of preventing COVID-19 infection” (priority 2020, dated 2022)",
  "origin": "cited, not measured here",
  "details": "in vivo",
  "data": [
    {"smiles": "CCN(CCO)CCCC(C)Nc1ccnc2cc(Cl)ccc12", "note": "(stereo not shown) [hydroxychloroquine]", "values": [
      {"measurement": "half-life", "value": "up to 32 days"}
    ]}
  ]
}
